Experimental findings from publication PMC6774960, “Design, synthesis and biological evaluation of a series of new resveratrol analogues as potential anti-cancer agents” (Royal Society Open Science, 2019) are described below.

The term CC50 denotes the concentration that lowers cell viability or growth by half. A word on the melting point: it is the temperature of the solid-liquid transition. Broadly, the IC50 is the midpoint of a concentration-inhibition curve.

For data set [1], the system named is HepG2 cells. The experiment in a line: Cell cycle assay by flow cytometry. The note with it: HepG2, 20 µM, 24 h. The class given is cell-based, human. Here is the method: To evaluate the effects of compound r on cell cycle progression of HepG2, cells were treated with compound r at different concentrations (0, 5, 15 and 45 µM) for 24 h and then examined by flow cytometry. The accumulation of cells in S phase increased with increasing concentration of compound r. Approximately 18.36 ± 1.93%, 19.39 ± 2.06%, 29.9 ± 0.87% and 34.24 ± 1.00% of cells were arrested in S phase in response to 0, 5, 15 and 45 µM compound r, respectively. In comparison, 39.56 ± 0.97% cells were arrested in S phase after treatment with 20 µM cisplatin for 24 h.
Figure 5. Cells treated with 0, 5, 15 and 45 µM compound r for 24 h were collected and analysed by flow cytometry. Images were representative of three independent experiments. Values represented the mean ± s.d.; versus blank, *p < 0.01, **p < 0.001; versus control ^#p < 0.01, ^##p < 0.001.
Cells were treated with compound r (0, 5, 15, 45 µM) or 20 µM of cisplatin as the control for 24 h. Cells were collected by centrifugation (1000 rpm, 5 min), washed with PBS and fixed with 70% ice-cold ethanol overnight at 4°C. The cell cycle was examined on a flow cytometer using a cell cycle analysis kit (Beyotime Biotechnologyin, China) in accordance with the manufacturer's instructions.

Data set [2] has as its system HepG2 cells. The experiment in a line: Morphologic observation by light microscope. The class given is cell-based, human. To be noted: HepG2, cisplatin 20 µM, 24 h. The procedure:
Morphological observations can directly reflect the effects of drugs on cells. HepG2 cells were cultured with increasing concentrations of compound r (0, 5, 15 and 45 µM) for 24 h and observed using a light microscope. The cell morphology was clearly altered with the increase in drug concentration (figure 2).
Figure 2. Effect of compound r on the microscopic examination of HepG2 cells. Morphology of HepG2 treated with compound r (0, 5, 15 and 45 µM) and cisplatin (20 µM) for 24 h. Light microscopy photographs, with 40× objective.
(§1) Cells were seeded in 96-well microtiter plates at a density of 1 × 10^4 cells well^−1 and incubated with different concentrations of compound (6.25, 12.50, 25.00, 50.00 to 100.00 µM), cisplatin and paclitaxel in RPMI-1640 or DMEM at 37°C with 5% CO2. After 24 h, cell morphology was observed using a light microscope, and then 20 µl of MTT solution (5 mg ml^−1) was added to the well and incubated for 4 h, then cell survival was determined by measuring the optical density (OD) absorbance at a wavelength of 570 nm using an ELISA microplate reader. The inhibition rate (IR) following each compound treatment was determined by the following equation: IR (%) = (1 − ODexp/ODcon) × 100%, where ODexp and ODcon are the OD of the treated and untreated cells, respectively. Cisplatin and paclitaxel were used as positive control drugs.

Data set [3] is described as follows: MTT cytotoxicity test, LO2. The note with it: human, LO2 cells (normal human hepatocytes), average of three determinations. It counts as cell-based, human. The procedure:
(§2) Vero cells are non-tumorigenic cell lines and are important raw materials as the research and production of biological products. Vero cells show low tumorigenicity and had been approved for use in the production of human virus vaccines. Thus, Vero cells were chosen as a control for cytotoxicity. All compounds were evaluated for their cell toxicity against Vero and normal human hepatocytes cells line (LO2) using MTT assays.
(§3) The anti-proliferative and cytotoxicity activity was determined using MTT assay. Human cervical carcinoma HeLa cells, human hepatocellular carcinoma HepG2 cells, human lung carcinoma A549 cells were representative in the anti-proliferation assay, which were obtained from the Shanghai Institute of Cell Biology (Shanghai, China). Normal African green monkey kidney Vero cells were a gift from Dr Xiumiao He at Guangxi University for Nationalities. Normal human hepatocytes LO2 cells were a gift from Dr Xing Lin at Guangxi Medical University. The HepG2, Hela, LO2 and Vero cells were cultured in Dulbecco's modified Eagle's medium (DMEM, Gibco) and the A549 cells were cultured in RPMI1640 (Gibco), both media were supplemented with 10% fetal calf serum and antibiotics (100 IU ml^−1 penicillin, 100 IU ml^−1 streptomycin; Amresco).
as §1
Background: Formazan colour is commonly taken as a measure of viable cells.

Data set [4] has as its system HepG2 cells. The data set can be described thus: MTT anti-proliferation assay, HepG2. The class given is cell-based, human. To be noted: average of three determinations. Here is the method:
(§4) The 22 synthesized resveratrol compounds were evaluated for anti-proliferative activities against three human cancer cell lines, including HepG2, A549 and HeLa cells, using 3-[4,5-dimethylthiazol-2-yl]-2,5 diphenyl tetrazolium bromide (MTT) assays. Paclitaxel, a well-known tubulin inhibitor, was used as a positive control. […] Therefore, the inhibitory activity of the compounds depended not only on the 2-position substitution of acrylic acid, but also on the 3-position substitution of acrylic acid.
as §3, §1

The test system of the next data set is A549 cells. The data set can be described thus: MTT anti-proliferation assay, A549. The class given is cell-based, human. To be noted: average of three determinations. The procedure: as §4, §3, §1
In the next data set the test system is HeLa cells. The experiment in a line: MTT anti-proliferation assay, HeLa. The class given is cell-based, human. To be noted: 24 h, average of three determinations. Here is the method: The 22 synthesized resveratrol compounds were evaluated for anti-proliferative activities against three human cancer cell lines, including HepG2, A549 and HeLa cells, using 3-[4,5-dimethylthiazol-2-yl]-2,5 diphenyl tetrazolium bromide (MTT) assays. Paclitaxel, a well-known tubulin inhibitor, was used as a positive control.
as §3
After 24 h, cell morphology was observed using a light microscope, and then 20 µl of MTT solution (5 mg ml^−1) was added to the well and incubated for 4 h, then cell survival was determined by measuring the optical density (OD) absorbance at a wavelength of 570 nm using an ELISA microplate reader. […] Cisplatin and paclitaxel were used as positive control drugs.

Data set [5] can be described thus: MTT cytotoxicity test, Vero. The class given is cell-based, African green monkey. The note with it: African green monkey, Vero cells (normal African green monkey kidney), average of three determinations. The procedure: as §2, §3, §1
Data set [6] relates to normal human hepatocytes LO2 cells. The data set can be described thus: MTT cytotoxicity test, LO2. The note with it: 24 h, average of three determinations. It counts as cell-based. The procedure: as §2, §3, §1
The next data set concerns Vero cells. The experiment in a line: MTT cytotoxicity test, Vero. The class given is cell-based, African green monkey. To be noted: 24 h, average of three determinations. Here is the method:
as §2, §3, §1

In the case of `N.N.[Cl][Pt][Cl]` [cisplatin, reference compound], in the data set with HepG2 cells [1], the “cells arrested in S phase” value was determined as 39.56 ± 0.97%. In addition, the cell morphology result in the data set with HepG2 cells [2] is given as “rounded shape”.

Compound `COc1cc(C(=Cc2cccc(OC(F)(F)F)c2)C(=O)O)cc(OC)c1OC` [compound g, 3-(3-(trifluoromethoxy)phenyl)-2-(3,4,5-trimethoxyphenyl) acrylic acid] returned a melting point of 156 to 157 °C. This compound also yielded a CC50 at 24 h in [3] greater than 100 µM. In the data set on HepG2 cells [4] (Homo sapiens, HepG2, 24 h), 24 ± 2 µM corresponded to half-maximal inhibition (IC50). In the data set on A549 cells (Homo sapiens, A549, 24 h), this compound displayed an IC50 of 14 ± 4 µM. This compound also yielded an IC50 in the data set on HeLa cells (Homo sapiens, HeLa) of 73 ± 5 µM. The cytotoxic concentration (CC50) at 24 h in data set [5] was greater than 100 µM.

Compound `COc1ccc(C(=Cc2cccc(C(F)(F)F)c2)C(=O)O)cc1` [compound q, 2-(4-methoxyphenyl)-3-(3-(trifluoromethyl)phenyl) acrylic acid] gave a melting point of 192 to 194 °C. The same compound had a CC50 at 24 h in [3] of 98 ± 2 µM. Also, the IC50 in the data set on HepG2 cells [4] (Homo sapiens, HepG2, 24 h) was 19 ± 2 µM. In the data set on A549 cells (Homo sapiens, A549, 24 h), this compound gave an IC50 of 16 ± 3 µM. The IC50 in the data set with HeLa cells (Homo sapiens, HeLa) turned out to be 14 ± 1 µM. Also, the CC50 at 24 h in data set [5] is greater than 100 µM.

The compound `COc1ccc(C=C(C(=O)O)c2cc(C)cc(C)c2)cc1` [compound v, 2-(3,5-dimethylphenyl)-3-(4-methoxyphenyl) acrylic acid] registered a melting point of 198 to 200 °C. This compound gave a CC50 at 24 h in data set [3] of 96 ± 6 µM. In the data set on HepG2 cells [4] (Homo sapiens, HepG2, 24 h), this compound showed an IC50 of 100 ± 1 µM. In addition, in the data set with A549 cells (Homo sapiens, A549, 24 h), the IC50 was 61 ± 3 µM. Besides, the IC50 in the data set with HeLa cells (Homo sapiens, HeLa) came to 51.25 ± 0.01 µM. The same compound showed a CC50 at 24 h in data set [5] greater than 100 µM.

For `COc1cc(C(=Cc2cc(Cl)ccc2[N+](=O)[O-])C(=O)O)cc(OC)c1OC` [compound m, 3-(5-chloro-2-nitrophenyl)-2-(3,4,5-trimethoxyphenyl) acrylic acid], the melting point fell in the range of 167 to 169 °C. This compound had a CC50 at 24 h in [3] greater than 100 µM. The IC50 with HepG2 cells [4] (Homo sapiens, HepG2, 24 h) is greater than 100 µM. For the same compound, the IC50 in the data set on A549 cells (Homo sapiens, A549, 24 h) stood at 34 ± 2 µM. In addition, the IC50 with HeLa cells (Homo sapiens, HeLa) was 60 ± 1 µM. Also, the CC50 at 24 h in data set [5] is greater than 100 µM.

Turning to “3-(4-hydroxy-3-methoxy-5-nitrophenyl)-2-(4-methoxyphenyl) acrylic acid [compound s]”, the 50% cytotoxic concentration (CC50) in [6] is 83 ± 2 µM; in the data set with Vero cells, greater than 100 µM. The IC50 in the data set with HepG2 cells [4] (24 h) was 42 ± 4 µM; with A549 cells (24 h) it was 15 ± 4 µM; with HeLa cells it was 39 ± 2 µM.
